One experiment concerns the target HPK1 (Homo sapiens, UniProt Q92918). Kind of experiment: HPK1 kinase activity inhibition test (ADP-Glo, luminescence). It is filed as biochemical. The conditions noted are these: 2 μM ATP, 5 nM HPK1, read-out: IC50, inhibitory effects on HPK1 kinase activity. The procedure:
The kinase activity of HPK1 is manifested as activity of autophosphorylation and phosphorylation of downstream substrates. In the process of autophosphorylation, additional substrates are not required, and ATP is consumed to generate ADP. The amount of the product is measured by ADP-Glo reagent and luminescence method to reflect kinase activity.
(§1) Tested compounds: compounds prepared in the Examples of this invention.
Preparation of compound stock solution: dissolve the test compound in 100% DMSO to make a 10 mM stock solution;
Preparation of 4×Kinase Reaction Buffer:
Preparation of 2×HPK1 Kinase Solution:
Preparation of 4×ATP Mixture:
Dilute the stock solution of the test compound by 5 times with 100% DMSO, make a 4-fold equal dilution in a 96-well dilution plate, add 1 μL of the compound to 49 μL of kinase reaction buffer, and shake on a microplate shaker for 20 minutes. Transfer 2 μL of 2×HPK1 kinase solution to 384 reaction plate, add 1 μL of the test compound to the 384 reaction plate (Greiner, Cat #784075), centrifuge for 1 minute (1000 rpm/min), incubate at 25° C. for 10 minutes. Transfer 1 μL of the 4×ATP mixture to a 384 reaction plate, centrifuge for 1 minute (1000 rpm/min), and incubate at 25° C. for 60 minutes. In the reaction system, the final concentration of DMSO is 0.5%. Transfer 4 μL of ADP-Glo to a 384 reaction plate, centrifuge for 1 minute (1000 rpm/min), and incubate at 25° C. for 40 minutes. Transfer 8 μL detection solution to a 384 reaction plate, centrifuge for 1 minute (1000 rpm/min), and incubate at 25° C. for 40 minutes. The […] is read using a Biotek multi-function plate reader, and the IC50 (half inhibitory concentration) of the compound is obtained using a four-coefficient nonlinear fitting formula.

The next experiment concerns Human Jurkat-E6-1 cells. Put plainly: Detection of IL-2 production by Jurkat cells using ELISA. It is filed as cell-based. The conditions noted are these: anti-CD3/anti-CD28 stimulation 24 hours, read-out: Percentage of the amount of IL-2 secreted by compound treated vs DMSO-treated cells; for activity at 0.33 µM: tested compound 0.33 μM; for activity at 1 µM: tested compound 1.0 μM. The procedure: as §1
Human Jurkat-E6-1 cells were incubated with various concentrations of tested compounds for 30 minutes in a humidified incubator at 37° C. and 5% CO2. Cells were transferred to cell culture plates pre-coated with anti-human CD3 antibody, then soluble anti-human CD28 antibody was added, and cells were stimulated for 24 hours at 37° C. and 5% CO2 in a humidified incubator. The cell culture medium was collected after centrifugation, and was then transferred to a 96-well transparent microtiter plate (Thermo) pre-coated with anti-human IL-2 antibody, incubated at room temperature for 2 hours with gently shaking, washed with washing buffer for 4 times, and then followed the ELISA MAX Deluxe Set Human IL-2 (BioLegend) kit procedures, used a microplate reader (Molecular Device, i3X) to read the GD value at 450 nm. The best standard curve was selected by the microplate reader application software, and the corresponding concentration was calculated according to the GD value of the standard. Results are expressed as a percentage (%) of the amount of IL-2 secreted by compound-treated vs DMSO-treated cells.

Our source for the IC50 and activity values is patent publication US20240383911A1, “AZAINDAZOLE MACROCYCLE COMPOUNDS AND USES THEREOF” (BROADENBIO CO., LTD, priority 2021, published 2024).

Structures are written as SMILES.

HPK1, sequence (Q92918 whole entry): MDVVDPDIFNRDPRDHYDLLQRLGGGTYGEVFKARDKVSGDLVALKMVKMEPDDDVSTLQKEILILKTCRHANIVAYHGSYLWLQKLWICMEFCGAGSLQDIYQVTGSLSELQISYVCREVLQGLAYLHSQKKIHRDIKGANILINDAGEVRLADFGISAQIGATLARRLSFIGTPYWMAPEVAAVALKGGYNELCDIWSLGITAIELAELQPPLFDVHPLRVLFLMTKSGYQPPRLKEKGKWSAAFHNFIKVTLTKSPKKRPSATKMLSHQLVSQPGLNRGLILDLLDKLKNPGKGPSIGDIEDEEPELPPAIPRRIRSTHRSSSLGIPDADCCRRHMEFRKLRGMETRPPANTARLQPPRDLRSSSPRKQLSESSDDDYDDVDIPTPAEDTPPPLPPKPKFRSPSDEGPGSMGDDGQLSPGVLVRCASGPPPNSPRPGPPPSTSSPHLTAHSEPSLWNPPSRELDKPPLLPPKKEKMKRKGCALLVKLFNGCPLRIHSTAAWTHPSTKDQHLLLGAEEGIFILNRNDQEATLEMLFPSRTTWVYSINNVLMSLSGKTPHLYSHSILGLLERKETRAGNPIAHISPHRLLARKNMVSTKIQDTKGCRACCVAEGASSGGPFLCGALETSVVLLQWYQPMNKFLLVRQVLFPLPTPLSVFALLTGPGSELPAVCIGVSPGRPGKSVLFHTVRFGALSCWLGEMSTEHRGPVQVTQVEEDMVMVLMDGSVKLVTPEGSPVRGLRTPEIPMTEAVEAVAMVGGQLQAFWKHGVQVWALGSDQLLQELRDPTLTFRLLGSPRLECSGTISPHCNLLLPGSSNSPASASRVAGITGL

The term IC50 denotes the concentration at which inhibition is half-maximal. As for `CN1C[C@@H]2CN(c3ccc4cc3OCCCOCc3cccc(F)c3-c3cc5c-4n[nH]c5cn3)CCN2CC1=O` [Compound 128, (9aS)-8-{17-fluoro-7,11-dioxa-20,23,24-triazapentacyclo[17.5.2.1^2,6.0^13,18.0^22,25]heptacosa-1(24),2,4,6(27),13(18),14,16,19,21,25-decaen-5-yl}-2-methyl-octahydro-1H-[1,4]diazino[1,2-a]pyrazin-3-one], the IC50 at HPK1 was not above 5 nM. For the same molecule, the activity at 0.33 µM in the experiment with Human Jurkat-E6-1 cells was found to be 452%.
Consider `OCCN1C2CCC1CN(c1ccc3cc1OCCCOc1cccc(F)c1-c1cc4c-3n[nH]c4cn1)C2` [Compound 145, 2-(3-{16-fluoro-7,11-dioxa-19,22,23-triazapentacyclo[16.5.2.1^2,6.0^12,17.0^21,24]hexacosa-1(23),2,4,6(26),12(17),13,15,18,20,24-decaen-5-yl}-3,8-diazabicyclo[3.2.1]octan-8-yl)ethan-1-ol], for which the IC50 at HPK1 was not above 5 nM. In addition, the activity at 1 µM in the experiment with Human Jurkat-E6-1 cells worked out at 512%.
The corresponding values for `Fc1cccc2c1-c1cc3c(n[nH]c3cn1)-c1ccc(N3CC4CC(C3)N4C3COC3)c(c1)OCCCO2` [Compound 146, 16-fluoro-5-[6-(oxetan-3-yl)-3,6-diazabicyclo[3.1.1]heptan-3-yl]-7,11-dioxa-19,22,23-triazapentacyclo[16.5.2.1^2,6.0^12,17.0^21,24]hexacosa-1(23),2,4,6(26),12(17),13,15,18,20,24-decaene] are not above 5 nM and 476%.
As for `Fc1cccc2c1-c1cc3c(n[nH]c3cn1)-c1ccc(N3CC4CC(C3)N4CC3CCOCC3)c(c1)OCCCO2` [Compound 147, 16-fluoro-5-{6-[(oxan-4-yl)methyl]-3,6-diazabicyclo[3.1.1]heptan-3-yl}-7,11-dioxa-19,22,23-triazapentacyclo[16.5.2.1^2,6.0^12,17.0^21,24]hexacosa-1(23),2,4,6(26),12(17),13,15,18,20,24-decaene], the IC50 at HPK1 is not above 5 nM. Moreover, in the experiment on Human Jurkat-E6-1 cells, the activity at 0.33 µM stood at 429%.
The like results for `CN1C[C@H]2C[C@@H]1CN2c1ccc2cc1OCCCOCc1cccc(F)c1-c1cc3c-2n[nH]c3cn1` [Compound 152, 17-fluoro-5-[(1R,4R)-5-methyl-2,5-diazabicyclo[2.2.1]heptan-2-yl]-7,11-dioxa-20,23,24-triazapentacyclo[17.5.2.1^2,6.0^13,18.0^22,25]heptacosa-1(24),2,4,6(27),13(18),14,16,19,21,25-decaene] were, in that order, not above 5 nM and 432%.
The corresponding values for `Fc1cccc2c1-c1cc3c(n[nH]c3cn1)-c1ccc(N3C[C@@H]4C[C@H]3CN4C3COC3)c(c1)OCCCOC2` [Compound 153, 17-fluoro-5-[(1S,4S)-5-(oxetan-3-yl)-2,5-diazabicyclo[2.2.1]heptan-2-yl]-7,11-dioxa-20,23,24-triazapentacyclo[17.5.2.1^2,6.0^13,18.0^22,25]heptacosa-1(24),2,4,6(27),13(18),14,16,19,21,25-decaene] are not above 5 nM and 369%.
